In paper PMC5282848, “Ancient coexistence of norepinephrine, tyramine, and octopamine signaling in bilaterians” (BMC Biology, 2017):
Where two headings read alike, the source gives them in different places.

Assays:
Test in all cases: Ca2+ mobilization, GFP-apoaequorin luminescence in CHO-K1 with Gα-16
Format in all cases: cell-based
[1] = biological target: T1, P. dumerilii α2-adrenergic receptor (Platynereis dumerilii, UniProt A0A1J0F5X6)
T1 construct: full-length in pcDNA3.1(+), expressed in CHO-K1 with Gα-16 and GFP-apoaequorin
T1 sequence (A0A1J0F5X6 1-619): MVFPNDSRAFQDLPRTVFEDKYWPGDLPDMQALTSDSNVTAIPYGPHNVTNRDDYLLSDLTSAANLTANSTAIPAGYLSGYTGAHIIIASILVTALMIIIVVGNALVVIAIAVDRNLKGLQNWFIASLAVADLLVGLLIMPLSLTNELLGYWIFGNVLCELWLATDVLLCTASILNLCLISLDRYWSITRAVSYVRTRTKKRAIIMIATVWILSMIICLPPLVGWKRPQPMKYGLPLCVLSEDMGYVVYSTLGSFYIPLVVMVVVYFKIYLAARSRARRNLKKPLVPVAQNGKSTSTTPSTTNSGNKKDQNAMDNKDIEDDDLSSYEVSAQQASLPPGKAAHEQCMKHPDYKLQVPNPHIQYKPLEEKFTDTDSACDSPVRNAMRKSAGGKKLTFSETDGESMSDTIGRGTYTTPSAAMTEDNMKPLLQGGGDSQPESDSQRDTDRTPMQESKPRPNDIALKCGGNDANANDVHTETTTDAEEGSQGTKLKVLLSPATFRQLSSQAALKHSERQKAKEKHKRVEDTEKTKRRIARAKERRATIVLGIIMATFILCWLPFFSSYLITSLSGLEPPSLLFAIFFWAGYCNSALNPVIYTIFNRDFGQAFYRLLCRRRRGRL
Excerpt: Ca2+ mobilization, GFP-apoaequorin luminescence in CHO-K1 with Gα-16 on P. dumerilii α2-adrenergic receptor

[2] = biological target: T2, S. kowalevskii α2-adrenergic (Saccoglossus kowalevskii, UniProt A0ABM0GQ86); details: read-out: Epinephrine
T2 construct: gene LOC100373264; full-length in pcDNA3.1(+), expressed in CHO-K1 with Gα-16 and GFP-apoaequorin
T2 sequence (A0ABM0GQ86 1-464): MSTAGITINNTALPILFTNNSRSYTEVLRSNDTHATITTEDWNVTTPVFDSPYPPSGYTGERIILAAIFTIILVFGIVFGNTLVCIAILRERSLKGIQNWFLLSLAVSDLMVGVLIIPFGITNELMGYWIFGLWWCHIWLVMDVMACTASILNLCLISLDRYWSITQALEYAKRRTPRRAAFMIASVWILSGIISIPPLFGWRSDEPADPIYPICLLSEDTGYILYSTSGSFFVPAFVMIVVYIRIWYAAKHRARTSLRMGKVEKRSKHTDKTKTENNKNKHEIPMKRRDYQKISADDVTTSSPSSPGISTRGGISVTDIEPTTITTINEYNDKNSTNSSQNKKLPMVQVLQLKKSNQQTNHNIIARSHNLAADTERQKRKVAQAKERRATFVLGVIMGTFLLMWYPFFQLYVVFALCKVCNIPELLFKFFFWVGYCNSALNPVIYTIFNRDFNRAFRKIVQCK
Excerpt: Ca2+ mobilization, GFP-apoaequorin luminescence in CHO-K1 with Gα-16 on S. kowalevskii α2-adrenergic

[3] = biological target: T3, P. caudatus α2-adrenergic (Priapulus caudatus, UniProt A0ABM1F9E8)
T3 construct: gene LOC106820961; full-length in pcDNA3.1(+), expressed in CHO-K1 with Gα-16 and GFP-apoaequorin
T3 sequence (A0ABM1F9E8 1-470): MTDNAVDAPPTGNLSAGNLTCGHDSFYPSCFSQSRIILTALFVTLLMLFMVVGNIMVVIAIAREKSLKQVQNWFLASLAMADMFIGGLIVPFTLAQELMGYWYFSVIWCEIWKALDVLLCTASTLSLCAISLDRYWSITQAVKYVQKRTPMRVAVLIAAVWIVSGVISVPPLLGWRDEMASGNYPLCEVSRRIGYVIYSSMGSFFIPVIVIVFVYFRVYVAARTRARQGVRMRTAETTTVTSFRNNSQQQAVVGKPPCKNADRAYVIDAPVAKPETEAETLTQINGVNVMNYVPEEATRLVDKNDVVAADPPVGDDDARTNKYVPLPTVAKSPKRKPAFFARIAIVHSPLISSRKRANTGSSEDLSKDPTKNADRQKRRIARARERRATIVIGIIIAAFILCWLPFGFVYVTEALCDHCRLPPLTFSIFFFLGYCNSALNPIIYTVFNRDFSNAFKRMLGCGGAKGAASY
Excerpt: Ca2+ mobilization, GFP-apoaequorin luminescence in CHO-K1 with Gα-16 on P. caudatus α2-adrenergic

[4] = biological target: T4, Priapulus caudatus α1-adrenergic (Priapulus caudatus, UniProt A0ABM1DSS1); details: read-out: Norepinephrine
T4 construct: gene LOC106805782; full-length in pcDNA3.1(+), expressed in CHO-K1 with Gα-16 and GFP-apoaequorin
T4 sequence (A0ABM1DSS1 1-550): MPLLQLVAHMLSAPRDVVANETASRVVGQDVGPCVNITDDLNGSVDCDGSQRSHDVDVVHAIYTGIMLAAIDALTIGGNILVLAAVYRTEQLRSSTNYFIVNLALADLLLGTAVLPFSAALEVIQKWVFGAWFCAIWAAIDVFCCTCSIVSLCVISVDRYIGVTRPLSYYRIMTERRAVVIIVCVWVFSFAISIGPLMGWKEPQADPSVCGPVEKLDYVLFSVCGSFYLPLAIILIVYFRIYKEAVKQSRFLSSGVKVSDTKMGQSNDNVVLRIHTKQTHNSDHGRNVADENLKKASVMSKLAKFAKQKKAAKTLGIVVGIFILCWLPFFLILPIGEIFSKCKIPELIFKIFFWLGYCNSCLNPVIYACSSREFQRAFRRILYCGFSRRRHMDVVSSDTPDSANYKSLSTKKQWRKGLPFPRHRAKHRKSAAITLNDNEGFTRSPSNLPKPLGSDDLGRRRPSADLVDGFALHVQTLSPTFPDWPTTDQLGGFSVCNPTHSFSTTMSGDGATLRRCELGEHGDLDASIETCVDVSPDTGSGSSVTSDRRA
Excerpt: Ca2+ mobilization, GFP-apoaequorin luminescence in CHO-K1 with Gα-16 on Priapulus caudatus α1-adrenergic

[5] = biological target: T5, S. kowalevskii α1-adrenergic (Saccoglossus kowalevskii, UniProt A0A0U2M149); details: read-out: Norepinephrine
T5 construct: full-length in pcDNA3.1(+), expressed in CHO-K1 with Gα-16 and GFP-apoaequorin
T5 sequence (A0A0U2M149 1-774): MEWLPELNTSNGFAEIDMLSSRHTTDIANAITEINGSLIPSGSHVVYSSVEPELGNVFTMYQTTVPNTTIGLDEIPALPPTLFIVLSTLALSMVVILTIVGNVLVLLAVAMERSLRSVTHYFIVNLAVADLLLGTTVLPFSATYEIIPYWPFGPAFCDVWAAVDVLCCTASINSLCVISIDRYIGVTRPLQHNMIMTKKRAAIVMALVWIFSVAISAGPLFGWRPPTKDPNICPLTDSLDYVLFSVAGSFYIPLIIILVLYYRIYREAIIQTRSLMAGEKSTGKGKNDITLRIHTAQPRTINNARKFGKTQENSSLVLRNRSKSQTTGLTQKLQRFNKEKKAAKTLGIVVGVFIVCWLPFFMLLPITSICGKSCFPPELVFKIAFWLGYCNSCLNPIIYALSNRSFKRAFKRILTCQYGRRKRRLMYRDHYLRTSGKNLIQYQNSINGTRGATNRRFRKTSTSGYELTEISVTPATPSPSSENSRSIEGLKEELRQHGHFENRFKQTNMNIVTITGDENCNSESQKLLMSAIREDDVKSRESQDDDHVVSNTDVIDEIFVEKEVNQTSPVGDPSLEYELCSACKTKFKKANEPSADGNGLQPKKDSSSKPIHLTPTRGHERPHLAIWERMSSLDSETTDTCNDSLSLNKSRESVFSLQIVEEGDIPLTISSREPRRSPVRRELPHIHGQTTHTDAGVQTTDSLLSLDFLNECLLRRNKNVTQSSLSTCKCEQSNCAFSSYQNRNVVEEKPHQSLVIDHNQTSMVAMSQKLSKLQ
Excerpt: Ca2+ mobilization, GFP-apoaequorin luminescence in CHO-K1 with Gα-16 on S. kowalevskii α1-adrenergic

[6] = biological target: T6, Platynereis dumerilii α1-adrenergic receptor (Platynereis dumerilii, UniProt A0A1J0F5Z2); details: read-out: Norepinephrine
T6 construct: full-length in pcDNA3.1(+), expressed in CHO-K1 with Gα-16 and GFP-apoaequorin
T6 sequence (A0A1J0F5Z2 1-651): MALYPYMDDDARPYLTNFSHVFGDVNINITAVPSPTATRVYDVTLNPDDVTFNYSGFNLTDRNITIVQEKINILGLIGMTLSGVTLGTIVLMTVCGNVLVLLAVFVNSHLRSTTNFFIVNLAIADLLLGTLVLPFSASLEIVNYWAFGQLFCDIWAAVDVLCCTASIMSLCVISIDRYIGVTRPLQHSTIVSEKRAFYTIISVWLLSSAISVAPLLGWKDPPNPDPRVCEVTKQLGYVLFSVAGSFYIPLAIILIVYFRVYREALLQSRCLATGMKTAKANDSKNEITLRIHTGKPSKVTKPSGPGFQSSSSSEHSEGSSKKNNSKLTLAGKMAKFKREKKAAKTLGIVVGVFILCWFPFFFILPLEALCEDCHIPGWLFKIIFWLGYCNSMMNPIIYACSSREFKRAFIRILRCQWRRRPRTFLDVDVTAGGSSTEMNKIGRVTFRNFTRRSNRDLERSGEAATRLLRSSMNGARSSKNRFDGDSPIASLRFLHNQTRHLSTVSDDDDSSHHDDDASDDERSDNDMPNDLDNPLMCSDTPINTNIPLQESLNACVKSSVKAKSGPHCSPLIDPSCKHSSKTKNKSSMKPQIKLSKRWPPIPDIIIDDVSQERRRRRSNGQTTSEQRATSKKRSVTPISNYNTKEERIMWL
Excerpt: Ca2+ mobilization, GFP-apoaequorin luminescence in CHO-K1 with Gα-16 on Platynereis dumerilii α1-adrenergic receptor

Row | SMILES | EC50 ([1]; read-out: Epinephrine) | EC50 [2] | EC50 ([3]; read-out: Epinephrine) | EC50 [4] | EC50 ([1]; read-out: Norepinephrine) | EC50 ([3]; read-out: Norepinephrine) | EC50 [5] | EC50 [6]
1 | CNC[C@H](O)c1ccc(O)c(O)c1 [epinephrine] | 11 nM | 2.3 nM | 450 nM |  |  |  |  | 
2 | NC[C@H](O)c1ccc(O)c(O)c1 [norepinephrine] |  |  |  | 7.5 nM | 8.2 nM | 470 nM | 17 nM | 210 nM
